Measured values reported in patent US12595289B2, “Therapeutic agent for breast cancer comprising BIG3-PHB2 interaction-inhibiting peptide derived from PHB2” (TOKUSHIMA UNIVERSITY, priority 2018, dated 2026).
Several values for one entry are separate records, joined by “and”; a condition that tells them apart may be missing. Equal values may be shown once. Positions of bridges follow the written chain, without caps; N, C: chain ends. Non-standard residues stand in square brackets, D forms with d. No end group written: not given here. Nle = CCCC[C@H](N)C(=O)O

Test system: Human breast cancer cell line MCF-7
Test: Estrogen (E2)-dependent growth assay on MCF-7
Assay type: cell-based
Details: MCF-7, 10 nM estrogen, 24 hours; peptide concentration not given (FIG. 11B, 12B)
Method: Growth assay on MCF-7 was carried out by seeding cells into 48-well plates (2×10^4 cells/200 μL). First, on the next day after seeding, the medium was changed to phenol red-free DMEM/F12 (Thermo Fisher Scientific) supplemented with 10% FBS, 1% Antibiotic/Antimycotic solution, 0.1 mM NEAA, 1 mM sodium pyruvate, and 10 μg/mL insulin. 24 hours later, the cells were treated with 10 nM 17β-estradiol (estrogen, Sigma) alone or with 10 nM estrogen and a PHB2 sequence-derived peptide. Growth assay on MCF-10A was carried out by seeding cells into 48-well plates (2×10^4 cells/200 μL). 24 hours after seeding, PHB2 sequence-derived peptide was added. Growth assays were carried out using the Cell Counting Kit-8 (CCK-8) (Dojindo, Kumamoto, Japan). The data are shown by mean±standard deviation of three independent experiments.
PHB2 peptides 11-21aa and 76-88aa were cross-linked by three types of cross-linking methods (FIG. 10A: hexafluorobenzene cross-linking, decafluorobiphenyl cross-linking, and disulfide cross-linking) to prepare cross-linked PHB2 peptides (stapled PHB2 peptides) (FIG. 10B), and the suppressive effects of these peptides on estrogen-dependent growth were examined. In the experiment, breast cancer cells MCF-7 were seeded, 10 μM each PHB2 peptide and 10 nM estrogen were added after 48 hours, and the cell number was evaluated after another 24 hours by MTT assay.

Substance | suppression ratio of estrogen-dependent growth
SEQ ID NO: 123: cyclic PHB2 peptide 11-21aa, hexafluorobenzene cross-linked (CRLPAGPRG[Nle]GTCF[Nal]RRRR; linker 1-13 via hexafluorobenzene; not fully specified (C-terminus)) | about 70%
SEQ ID NO: 124: cyclic PHB2 peptide 11-21aa, decafluorobiphenyl cross-linked (CRLPAGPRG[Nle]GTCF[Nal]RRRR; linker 1-13 via decafluorobiphenyl; not fully specified (C-terminus)) | about 70%
SEQ ID NO: 126: cyclic PHB2 peptide 76-88aa, hexafluorobenzene cross-linked (CQYPIIYDIRARPRCF[Nal]RRRR; linker 1-15 via hexafluorobenzene; not fully specified (C-terminus)) | about 80%
SEQ ID NO: 127: cyclic PHB2 peptide 76-88aa, decafluorobiphenyl cross-linked (CQYPIIYDIRARPRCF[Nal]RRRR; linker 1-15 via decafluorobiphenyl; not fully specified (C-terminus)) | about 80%
SEQ ID NO: 133: PHB2 peptide 11-22aa in which glycines at positions 15 and 18 were substituted with D-alanines (RLPA[dA]PR[dA]MGTARRRRRRRR-NH2) | no suppressive effect
SEQ ID NO: 134: PHB2 peptide 11-22aa in which glycines at positions 15 and 18 were substituted with D-leucines (RLPA[dL]PR[dL]MGTARRRRRRRR-NH2) | about 65%

Same assay, conditions: MCF-7, 10 μM each peptide, 10 nM estrogen, 24 hours

Substance | suppression ratio of E2-dependent growth
No. 2: PHB2 sequence-derived peptide 42-50aa (TVEGGHRAI; not fully specified (C-terminus)) | 22% and 20%
No. 3: PHB2 sequence-derived peptide 38-50aa (ESVFTVEGGHRAI; not fully specified (C-terminus)) | 23% and 17%
No. 50: PHB2 sequence-derived peptide 75-89aa (FQYPIIYDIRARPRK; not fully specified (C-terminus)) | almost the same suppressive effect
SEQ ID NO: 115: cross-linked PHB2 peptide 11-21aa without polyarginine at the C terminus (CRLPAGPRG[Nle]GTC-NH2; linker 1-13 via hexafluorobenzene) | about 70%
SEQ ID NO: 116: cross-linked PHB2 peptide 11-21aa without polyarginine at the C terminus (CRLPAGPRG[Nle]GTC-NH2; linker 1-13 via decafluorobiphenyl) | about 70%
SEQ ID NO: 117: cross-linked PHB2 peptide 11-21aa without polyarginine at the C terminus (CRLPAGPRG[Nle]GTC-NH2; disulfide 1-13) | about 70%
SEQ ID NO: 119: cross-linked PHB2 peptide 76-88aa without polyarginine at the C terminus (CQYPIIYDIRARPRC-NH2; linker 1-15 via hexafluorobenzene) | about 70%
SEQ ID NO: 120: cross-linked PHB2 peptide 76-88aa without polyarginine at the C terminus (CQYPIIYDIRARPRC-NH2; linker 1-15 via decafluorobiphenyl) | about 70%
SEQ ID NO: 121: cross-linked PHB2 peptide 76-88aa without polyarginine at the C terminus (CQYPIIYDIRARPRC-NH2; disulfide 1-15) | about 70%
